“And” between values parts separate entries of the source, which are not always exact repeats. Identical values can stand only once. Like-named read-outs stand apart in the source and are kept apart here.
Experiments:
[1] = test system: Pyricularia oryzae; format: cell-based; settings: 7 days after inoculation
[2] = test system: Alternaria solani; test: Test 8—Activity Against Early Blight on Tomatoes Caused by Alternaria solani (microtest); format: cell-based; settings: 7 days after inoculation
Description: (§1) The active compounds were formulated separately as a stock solution having a concentration of 10000 ppm in dimethyl sulfoxide.
(§2) The measured parameters were compared to the growth of the active compound-free control variant (100%) and the fungus-free and active compound-free blank value to determine the relative growth in % of the pathogens in the respective active compounds. These percentages were converted into efficacies.
Test 8—Activity Against Early Blight on Tomatoes Caused by Alternaria solani
(§3) The stock solutions were mixed according to the ratio, pipetted onto a micro titer plate (MTP) and diluted with water to the stated concentrations. A spore suspension of Alternaria solani in an aqueous biomalt solution was then added. The plates were placed in a water vapor-saturated chamber at a temperature of 18° C. Using an absorption photometer, the MTPs were measured at 405 nm 7 days after the inoculation.

[3] = test system: vetch aphid (Megoura viciae); test: Test 1—Control of Vetch Aphid (leaf disks, 24-well microtiter plates); format: in vivo; settings: 5 days
Experimental: Test 1—Control of Vetch Aphid
For evaluating control of vetch aphid (Megoura viciae) through contact or systemic means the test unit consisted of 24-well-microtiter plates containing broad bean leaf disks.
The compounds or mixtures were formulated using a solution containing 75% water and 25% Dimethylsulfoxide (DMSO). Different concentrations of formulated compounds or mixtures were sprayed onto the leaf disks at 2.5 μl, using a custom built micro atomizer, at two replications.
(§4) For experimental mixtures in these tests identical volumes of both mixing partners at the desired concentrations respectively, were mixed together.
After application, the leaf disks were air-dried and 5-8 adult aphids placed on the leaf disks inside the microtiter plate wells. The aphids were then allowed to suck on the treated leaf disks and incubated at 23±1° C., 50±5% relative humidity (RH) for 5 days. Aphid mortality and fecundity was then visually assessed.

[4] = test system: Mediterranean fruitfly (Ceratitis capitata); test: Test 4—Control of Mediterranean Fruitfly (insect diet with eggs); format: in vivo; settings: 5 days
Experimental: Test 4—Control of Mediterranean Fruitfly
For evaluating control of Mediterranean fruitfly (Ceratitis capitata) the test unit consisted of 96-well-microtiter plates containing an insect diet and 50-80 C. capitata eggs.
The compounds or mixtures were formulated using a solution containing 75% water and 25% DMSO. Different concentrations of formulated compounds or mixtures were sprayed onto the insect diet at 5 μl, using a custom built micro atomizer, at two replications.
as §4
(§5) After application, microtiter plates were incubated at 28±1° C., 80±5% RH for 5 days. Egg and larval mortality was then visually assessed.

[5] = test system: Botrytis cinerea; test: Test 6—Activity Against the Grey Mold Botrytis cinerea in the Microtiterplate Test; format: cell-based; settings: 7 days after inoculation
Description: as §1, §2
Test 6—Activity Against the Grey Mold Botrytis cinerea in the Microtiterplate Test
as §3, with “Botrci cinerea” for “Alternaria solani”

[6] = test system: green peach aphid (Myzus persicae); test: Test 2—Control of Green Peach Aphid (artificial diet under membrane, systemic); format: in vivo; settings: 3 days
Description: Test 2—Control of Green Peach Aphid
For evaluating control of green peach aphid (Myzus persicae) through systemic means the test unit consisted of 96-well-microtiter plates containing liquid artificial diet under an artificial membrane.
The compounds or mixtures were formulated using a solution containing 75% water and 25% DMSO. Different concentrations of formulated compounds or mixtures were pipetted into the aphid diet, using a custom built pipetter, at two replications.
as §4
After application, 5-8 adult aphids were placed on the artificial membrane inside the microtiter plate wells. The aphids were then allowed to suck on the treated aphid diet and incubated at 23±1° C., 50±5% RH for 3 days. Aphid mortality and fecundity was then visually assessed.

[7] = test system: Septoria tritici; test: Test 9—Activity Against Leaf Blotch on Wheat Caused by Septoria tritici (microtest); format: cell-based; settings: 7 days after inoculation
Description: as §1, §2
Test 9—Activity Against Leaf Blotch on Wheat Caused by Septoria tritici
as §3, with “SepCoria triticiin” for “Alternaria solani in”

[8] = test system: boll weevil (Anthonomus grandis); test: Test 3—Control of Boll Weevil (insect diet with eggs); format: in vivo; settings: 5 days
Experimental: Test 3—Control of Boll Weevil
For evaluating control of boll weevil (Anthonomus grandis) the test unit consisted of 24-well-microtiter plates containing an insect diet and 20-30 A. grandis eggs.
The compounds or mixtures were formulated using a solution containing 75% water and 25% DMSO. Different concentrations of formulated compounds or mixtures were sprayed onto the insect diet at 20 μl, using a custom built micro atomizer, at two replications.
as §4
After application, microtiter plates were incubated at 23±1° C., 50±5% RH for 5 days. Egg and larval mortality was then visually assessed.

[9] = test system: tobacco budworm (Heliothis virescens); test: Test 5—Control of Tobacco Budworm (insect diet with eggs); format: in vivo; settings: 5 days
Experimental: Test 5—Control of Tobacco Budworm
For evaluating control of tobacco budworm (Heliothis virescens) the test unit consisted of 96-well-microtiter plates containing an insect diet and 15-25 H. virescens eggs.
The compounds or mixtures were formulated using a solution containing 75% water and 25% DMSO. Different concentrations of formulated compounds or mixtures were sprayed onto the insect diet at 10 μl, using a custom built micro atomizer, at two replications.
as §4, §5

[10] = 2 + 0 ppm (first compound alone)
[11] = 0 + 0.08 ppm (second compound alone)
[12] = 0 + 0.4 ppm (second compound alone)
[13] = 0 + 10 ppm (second compound alone)
[14] = 0 + 20 ppm (second compound alone)
[15] = 0 + 2 ppm (second compound alone)
[16] = 10 + 0 ppm (first compound alone)
[17] = 50 + 0 ppm (first compound alone)

## CN(C(=O)c1cnn(C)c1C(F)F)c1cccnc1 [I-17]
[1]; 63 ppm
  Observed efficacy %: 0%
[2]; 63 ppm
  Observed efficacy %: 4%
[3]; [10]
  Average Control %: 0%

## O=[N+]([O-])NC1=NCCN1Cc1ccc(Cl)nc1 [Imidacloprid, imidacloprid]
[3]; 0 + 0.016 ppm (second compound alone)
  Average Control %: 0%
[3]; [11]
  Average Control %: 0%
[3]; [12]
  Average Control %: 25%
[4]; [13]
  Average Control %: 0%

## OC(Cc1ccccc1Cl)(Cn1nc[nH]c1=S)C1(Cl)CC1 (stereo not shown) [Prothioconazole, 2-[2-(1-chlorocyclopropyl)-3-(2-chlorophenyl)-2-hydroxypropyl]-2,4-dihydro[1,2,4]triazole-3-thione]
[1]; 0.25 ppm
  Observed efficacy %: 15%
[2]; 0.25 ppm
  Observed efficacy %: 22%
[5]; 0.25 ppm
  Observed efficacy %: 45%

## abamectin
[3]; [11]
  Average Control %: 25%

## C[C@]1(COC(=O)CC2CC2)[C@@H]2C[C@H](OC(=O)CC3CC3)[C@@]3(C)Oc4cc(-c5cccnc5)oc(=O)c4[C@H](O)[C@@H]3[C@@]2(C)CC[C@@H]1OC(=O)CC1CC1 [A27.2]
[6]; 0 + 0.0008 ppm (second compound alone)
  Average Control %: 0%
[6]; 0 + 0.004 ppm (second compound alone)
  Average Control %: 50%

## COC(=O)N(OC)c1ccccc1COc1ccn(-c2ccc(Cl)cc2)n1 [Pyraclostrobin, methyl N-{2-[1-(4-chlorophenyl)-1H-pyrazol-3-yloxymethyl]phenyl}(N-methoxy)carbamate]
[7]; 0.004 ppm
  Observed efficacy %: 46%

## N#CCNC(=O)c1cnccc1C(F)(F)F [Flonicamid, flonicamid]
[8]; [14]
  Average Control %: 0%
[3]; [14]
  Average Control %: 25%
[6]; 0 + 4 ppm (second compound alone)
  Average Control %: 0%

## N#Cc1nn(-c2c(Cl)cc(C(F)(F)F)cc2Cl)c(N)c1[S+]([O-])C(F)(F)F (stereo not shown) [Fipronil, fipronil]
[3]; [15]
  Average Control %: 0%
[6]; [15]
  Average Control %: 0%

## CC1=NNC(=O)N(/N=C/c2cccnc2)C1 [Pymetrozine, pymetrozine]
[9]; 0 + 400 ppm (second compound alone)
  Average Control %: 50%

## CC(c1ccc(C(F)(F)F)nc1)S(C)(=O)=NC#N (stereo not shown) [Sulfoxaflor, sulfoxaflor]
[6]; 0 + 0.0064 ppm (second compound alone)
  Average Control %: 0%

## CON=C(C(=O)OC)c1ccccc1CON=C(C)c1cccc(C(F)(F)F)c1 [Trifloxystrobin, methyl (E)-methoxyimino-{(E)-α-[1-(α,α,α-trifluoro-mtolyl)ethylideneaminooxy]-o-tolyl}acetate]
[7]; 0.016 ppm
  Observed efficacy %: 71%

## CNC(=O)c1cc(Cl)cc(C)c1NC(=O)c1cc(Br)nn1-c1ncccc1Cl [Chloranthraniliprole, chloranthraniliprole]
[8]; [12]
  Average Control %: 25%
[3]; [13]
  Average Control %: 25%
[6]; [12]
  Average Control %: 0%
[4]; [13]
  Average Control %: 0%

## CC1(C)C(C=C(Cl)Cl)C1C(=O)OC(C#N)c1cccc(Oc2ccccc2)c1 (stereo not drawn) [α-cypermethrin, alpha-cypermethrin]
[8]; [12]
  Average Control %: 25%
[3]; [12]
  Average Control %: 25%
[3]; [15]
  Average Control %: 0%

## CCOC(=O)OC1=C(c2cc(C)ccc2C)C(=O)N[C@]12CC[C@@H](OC)CC2 [Spirotetramat, spirotetramat]
[6]; 0 + 3.2 ppm (second compound alone)
  Average Control %: 0%
[6]; 0 + 16 ppm (second compound alone)
  Average Control %: 0%

## Cc1c(C(=O)N(C)c2ccnnc2)cnn1C(C)C [I-52]
[1]; 63 ppm
  Observed efficacy %: 0%
[2]; 63 ppm
  Observed efficacy %: 0%
[8]; [10]
  Average Control %: 0%
[8]; [16]
  Average Control %: 0%
[8]; [17]
  Average Control %: 0%
[5]; 63 ppm
  Observed efficacy %: 4%
[7]; 4 ppm
  Observed efficacy %: 18%
[7]; 16 ppm
  Observed efficacy %: 18%
[3]; [16]
  Average Control %: 50% and 25%
[6]; 0.08 + 0 ppm (first compound alone)
  Average Control %: 0%
[6]; [10]
  Average Control %: 25% and 50%
[4]; [17]
  Average Control %: 0%

## CC(C)(C)C(O)(CCc1ccc(Cl)cc1)Cn1cncn1 (stereo not shown) [Tebuconazole, 1-(4-chlorophenyl)-4,4-dimethyl-3-[1,2,4]triazol-1-ylmethylpentan-3-ol]
[7]; 0.25 ppm
  Observed efficacy %: 57%

## Cc1c(C(=O)N(C)c2ccnnc2)cnn1CC(F)(F)F [I-76]
[7]; 1 ppm
  Observed efficacy %: 11%
[3]; [10]
  Average Control %: 0%
[3]; [16]
  Average Control %: 0%
[3]; [17]
  Average Control %: 0%
[9]; [17]
  Average Control %: 0%
[6]; 0.4 + 0 ppm (first compound alone)
  Average Control %: 0%
[6]; [10]
  Average Control %: 0%
[6]; [17]
  Average Control %: 50%
[4]; [16]
  Average Control %: 0%

## CN1COCN(Cc2cnc(Cl)s2)/C1=N\[N+](=O)[O-] [Thiamethoxam, thiamethoxam]
[3]; [15]
  Average Control %: 25%
[4]; [13]
  Average Control %: 25%

— patent US20130267476A1, “Pesticidal Active Mixtures Comprising Pyrazole Compounds” (BASF SE, priority 2010, published 2013)
